Patent US8222260B2, “Substituted 6-anilinopurine derivatives as inhibitors of cytokinin oxidase/dehydrogenase and preparations containing these derivatives” (Univerzita Palackego V Olomouci, priority 2007, dated 2012)

Assays:
[1] = target: T1, AHK3 (Arabidopsis thaliana, UniProt Q9C5U1); assay: Activation of cytokinin receptors (E. coli KMI001 beta-galactosidase reporter); format: cell-based; details: 28 h incubation; n.a. means no activation
T1 sequence (Q9C5U1 1-1036): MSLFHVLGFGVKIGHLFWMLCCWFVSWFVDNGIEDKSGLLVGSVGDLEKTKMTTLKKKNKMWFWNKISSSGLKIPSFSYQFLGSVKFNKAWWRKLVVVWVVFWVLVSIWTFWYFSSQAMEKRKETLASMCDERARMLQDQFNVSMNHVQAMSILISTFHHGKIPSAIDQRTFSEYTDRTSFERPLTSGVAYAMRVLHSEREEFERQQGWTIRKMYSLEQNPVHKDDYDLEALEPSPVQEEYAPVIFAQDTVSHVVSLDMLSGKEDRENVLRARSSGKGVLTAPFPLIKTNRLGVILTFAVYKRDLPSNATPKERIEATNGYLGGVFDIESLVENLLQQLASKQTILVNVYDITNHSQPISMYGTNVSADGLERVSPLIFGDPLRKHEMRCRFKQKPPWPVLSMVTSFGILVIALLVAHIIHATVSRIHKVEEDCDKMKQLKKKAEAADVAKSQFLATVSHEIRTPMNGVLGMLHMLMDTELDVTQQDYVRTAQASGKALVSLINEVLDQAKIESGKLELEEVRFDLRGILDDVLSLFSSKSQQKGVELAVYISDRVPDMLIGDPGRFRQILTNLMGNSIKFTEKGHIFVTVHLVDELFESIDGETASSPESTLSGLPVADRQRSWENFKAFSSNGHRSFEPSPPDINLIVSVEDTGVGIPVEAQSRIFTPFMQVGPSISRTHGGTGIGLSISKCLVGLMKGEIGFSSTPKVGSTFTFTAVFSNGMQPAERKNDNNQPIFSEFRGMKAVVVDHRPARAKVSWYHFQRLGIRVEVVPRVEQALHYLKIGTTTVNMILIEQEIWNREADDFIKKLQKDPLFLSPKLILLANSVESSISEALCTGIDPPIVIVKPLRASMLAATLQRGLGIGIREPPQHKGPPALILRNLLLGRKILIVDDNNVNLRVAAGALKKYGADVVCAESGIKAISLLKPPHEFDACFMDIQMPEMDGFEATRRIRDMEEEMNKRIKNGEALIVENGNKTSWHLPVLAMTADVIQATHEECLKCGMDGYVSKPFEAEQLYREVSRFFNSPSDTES
Description: (§1) Escherichia coli strains KMI001 harbouring the plasmid […]4 or […]3 were grown overnight at 25° C. in M9 media enriched with 0.1% casamino acids to OD600 1. The preculture was diluted 1:600 in 1 ml M9 medium containing 0.1% casamino acids and 1 μl stock solution of either the tested compound (10^-7 M-5×10^-5 M) or solvent control (DMSO, ethanol, methanol) were added. The cultures were further grown at 25° C. in microtiter plate, 200 μl per well. […] The cultures were centrifuged and 50 μl aliquots of the supernatant were transferred to microtiter plate containing 2 μl 150 mM 4-methyl umbelliferyl galactoside which was subsequently incubated for 1 h at 37° C. The reaction was stopped by adding 100 μl 0.2 M Na2CO3. […] The EC50 value, the compound concentration activating the receptor to 50%, was calculated from the obtained dose response curves. The values shown in Table 10 are means of three replicates and the entire test was repeated at least twice.

[2] = target: CRE1/AHK4 (Arabidopsis thaliana, UniProt Q9C5U0); assay: as above; format: cell-based; details: 17 h incubation; n.a. means no activation
Sequence of CRE1/AHK4 (Q9C5U0 whole entry): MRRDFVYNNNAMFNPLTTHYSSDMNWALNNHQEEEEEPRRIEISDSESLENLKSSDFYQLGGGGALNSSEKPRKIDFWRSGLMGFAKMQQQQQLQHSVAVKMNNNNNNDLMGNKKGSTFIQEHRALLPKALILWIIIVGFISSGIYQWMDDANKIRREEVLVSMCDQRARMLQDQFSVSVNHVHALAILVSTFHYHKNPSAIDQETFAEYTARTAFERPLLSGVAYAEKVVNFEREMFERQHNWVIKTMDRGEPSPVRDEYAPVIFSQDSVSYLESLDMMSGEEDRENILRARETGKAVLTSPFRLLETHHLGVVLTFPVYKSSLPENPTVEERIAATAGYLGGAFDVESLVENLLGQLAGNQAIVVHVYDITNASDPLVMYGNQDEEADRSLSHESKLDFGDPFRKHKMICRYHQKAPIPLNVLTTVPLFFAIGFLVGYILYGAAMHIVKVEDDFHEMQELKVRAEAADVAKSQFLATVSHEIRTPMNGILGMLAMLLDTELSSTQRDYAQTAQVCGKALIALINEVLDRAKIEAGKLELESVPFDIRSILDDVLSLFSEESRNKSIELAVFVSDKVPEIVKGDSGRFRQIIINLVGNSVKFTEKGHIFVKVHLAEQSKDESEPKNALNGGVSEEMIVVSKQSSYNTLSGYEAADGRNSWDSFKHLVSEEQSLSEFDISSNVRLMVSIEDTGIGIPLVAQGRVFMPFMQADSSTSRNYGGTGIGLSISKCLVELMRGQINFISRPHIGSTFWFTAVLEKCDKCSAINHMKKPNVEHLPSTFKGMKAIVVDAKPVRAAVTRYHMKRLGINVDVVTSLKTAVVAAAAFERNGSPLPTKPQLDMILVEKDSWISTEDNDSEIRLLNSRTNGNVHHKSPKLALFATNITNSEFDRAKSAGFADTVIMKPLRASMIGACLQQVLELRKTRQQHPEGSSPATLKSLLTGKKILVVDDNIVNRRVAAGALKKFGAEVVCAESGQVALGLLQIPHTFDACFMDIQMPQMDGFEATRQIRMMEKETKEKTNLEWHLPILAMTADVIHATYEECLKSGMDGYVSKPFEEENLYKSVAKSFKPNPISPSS
Description: as §1

[3] = system: Amaranthus caudatus cotyledon/hypocotyl explants; assay: Amaranthus bioassay (betacyanin content); format: cell-based, Amaranthus caudatus var. atropurpurea; details: at the concentration with highest activity, relative to 10^−5 M kinetin
Description: The standard Amaranthus bioassay was performed with the following modifications. The seeds of Amaranthus caudatus var. atropurpurea were surface-sterilised in 10% (w/v) N-chlorobenzenesulfonamide for 10 min and washed 5 times with deionized water. They were placed in 15 cm Petri dishes containing paper tissues saturated with deionized water. After 72 h of cultivation at 25° C. in darkness, the roots of the seedlings were cut off. The explants, consisting of two cotyledons and hypocotyls, were placed in 5 cm Petri dishes onto two layers of filtration paper soaked with 1 ml of the incubation medium containing 10 μmol of Na2HPO4—KH2PO4, pH 6.8, 5 μmol of tyrosine and the compound to be tested. There were 20 explants per dish. The procedure was carried out under green safe light in a darkroom. After 48 h of incubation at 25° C. in darkness, betacyanin was extracted by freezing the explants in 4 ml 3.33 μM acetic acid. The concentration of betacyanin was determined from the absorbances at 537 nm and 620 nm as follows: ΔA=A537nm−A620nm. The values ΔA were plotted against the concentration tested, are means of five replicates and the entire test was repeated at least twice. […] The compounds to be tested were dissolved in dimethylsulfoxide (DMSO) and the solution brought up to 10^−3M with distilled water.
From the obtained data, the concentration with the highest activity was selected for each compound tested. Relative activity of the compound at this concentration was calculated (Tab. 12). The activity obtained for 10^−5 M kinetin (K) was postulated as 100%.

[4] = system: cytokinin-dependent tobacco callus Nicotiana tabacum L. cv. Wisconsin 38; assay: Tobacco callus biotest (plant cell division); format: cell-based; details: at the concentration with highest activity, relative to 10^−5 M kinetin
Description: The stimulatory effect of the newly prepared derivatives was tested in the calus biotest using cytokinin-dependent tobacco callus. Cytokinin-dependent tobacco callus Nicotiana tabacum L. cv. Wisconsin 38 was maintained at 25° C. in darkness on modified Murashige-Skoog medium, containing per 1 liter: 4 μmol of nicotinic acid, 2.4 μmol of pyridoxine hydrochloride, 1.2 μmol of thiamine, 26.6 μmol of glycine, 1.37 μmol of glutamine, 1.8 μmol of myo-inositol, 30 g of sucrose, 8 g of agar, 5.37 μmol of NAA and 0.5 μmol of 6-benzylaminopurine. Subcultivation was carried out every three weeks. Fourteen days before the bioassay, the callus tissue was transferred to the media without 6-benzylaminopurine. The biological activity was determined from the increase of the fresh callus weight after four weeks of cultivation. Five replicates were prepared for each concentration of the compound tested and the entire test was repeated twice. […] The compounds to be tested were dissolved in dimethylsulfoxide (DMSO) and the solution brought up to 10^−3 M with distilled water.
From the obtained data, the concentration with the highest activity was selected for each compound tested. Relative activity of the compound at this concentration was calculated (Table 11). The activity obtained for 10^−5 M of the control substance kinetin (K) was postulated as 100%.

[5] = target: T2, recombinant AtCKX2 (Arabidopsis thaliana, UniProt Q9FUJ3); assay: Inhibition of cytokinin oxidase/dehydrogenase activity (PMS/MTT microtitre plate assay); format: biochemical; details: 30 μM iP as substrate, pH 7.4, 37° C.; means of three replicates; read-out: IC50, inhibition of recombinant AtCKX2
T2 sequence (Q9FUJ3 23-501): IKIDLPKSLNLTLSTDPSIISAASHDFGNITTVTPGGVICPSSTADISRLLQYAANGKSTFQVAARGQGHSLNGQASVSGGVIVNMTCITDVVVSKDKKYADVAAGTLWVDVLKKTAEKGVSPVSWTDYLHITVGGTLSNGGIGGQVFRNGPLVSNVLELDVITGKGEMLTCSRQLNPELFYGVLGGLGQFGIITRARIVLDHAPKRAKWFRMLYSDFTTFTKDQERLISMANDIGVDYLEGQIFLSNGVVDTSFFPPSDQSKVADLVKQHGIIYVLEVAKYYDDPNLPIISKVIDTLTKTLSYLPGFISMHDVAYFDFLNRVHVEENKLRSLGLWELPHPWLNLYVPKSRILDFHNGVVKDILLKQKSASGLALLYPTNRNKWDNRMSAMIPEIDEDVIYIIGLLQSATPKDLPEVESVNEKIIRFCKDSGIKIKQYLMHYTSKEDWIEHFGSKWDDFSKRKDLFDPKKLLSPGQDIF
Description: IC50 determinations were done using the assay in microtitre plate. Each well contained 100 μL of PMS/MTT [phenazine methosulfate/3-(4,5-dimethylthiazol-2-yl)-2,5-diphenyltetrazolium bromide] reaction mixture (final concentrations: 0.1 M KH2PO4, pH 7.4, 1 mM MTT, 0.2 mM PMS) containing the tested compound (3×10^−7 M-3×10^−4 M) and 30 μM N^6-isopentenyladenine (iP) as a substrate. 100 μL of cell-free growth medium of S. cerevisiae strain 23344c ura^− harboring the plasmid pYES2-AtCKX2 was directly used as a source of AtCKX2. Plates were incubated in the dark for […] at 37° C. and the enzymatic reaction was stopped by 25 μL of 35% acetic acid. The absorbance at 578 nm was measured using spectrophotometer Tecan. Absorbance of the sample without iP was subtracted.
The IC50 value, the compound concentration that inhibits the enzyme activity to 50%, was calculated from the obtained dose response curves. The values shown in Table 9 are means of three replicates and the entire test was repeated at least twice.

Structure (SMILES) | EC50 [1] [µM] | EC50 [2] [µM] | IC50 [5] [µM] | Activity (%) [10^−5 mol · l^−1 K = 100%] [3] [%] | Activity (%) [10^−5 mol · l^−1 K = 100%] [4] [%]
COc1cccc(Nc2nc(C)nc3nc[nH]c23)c1 [Compound 118, 2-Methyl-6-(3-methoxyanilino)purine] | > 50 |  | 9.4 | 144.2 | 105.7
Sc1nc(Nc2cccc(Cl)c2)c2nc[nH]c2n1 [Compound 80] | 42 |  | 28.4 | 106 | 126
Oc1ccccc1Nc1nc(F)nc2[nH]cnc12 [Compound 47] | 45.8 | > 50 |  |  | 
CSc1nc(Nc2cccc(F)c2)c2nc[nH]c2n1 [Compound 98] | 32 | 49 |  | 142.5 | 130.3
Oc1ccc(Nc2nc(F)nc3[nH]cnc23)cc1 [Compound 49] | > 50 | 37.1 |  |  | 106
Cc1ccc(Nc2nc(Cl)nc3[nH]cnc23)cc1C [Compound 30] | > 50 | 33.3 |  |  | 
Nc1nc(Nc2ccccc2O)c2[nH]cnc2n1 [Compound 71] | > 50 | > 50 |  |  | 

The remaining compounds from weak to strong by EC50 [1], led by results:

EC50 [1] [µM] | EC50 [2] [µM] | IC50 [5] [µM] | Structure (SMILES) | Activity (%) [10^−5 mol · l^−1 K = 100%] [3] [%] | Activity (%) [10^−5 mol · l^−1 K = 100%] [4] [%]
31.7 |  | 28.3 | COc1cccc(Nc2nc(S)nc3[nH]cnc23)c1 [Compound 88] | 113.4 | 103.4
29 | 41 |  | CSc1nc(Nc2cccc(Cl)c2)c2nc[nH]c2n1 [Compound 96] | 145.8 | 121.2
17.4 | > 50 |  | COc1ccccc1Nc1nc(F)nc2[nH]cnc12 [Compound 50] | 105.2 | 117.6
